From patent US5053070A, “Pyrimidine derivatives, preparation processes thereof, herbicide containing the same, and herbicidal compositions containing the same along with other active ingredient” (Mitsui Toatsu Chemicals, Incorporated, priority 1988, dated 1991)
Converted amounts (≈) assume the structure as drawn.

Assays:
[1] = system: ALS (acetolactate syntase); assay: ALS enzyme assay (Test 1); assay type: biochemical, barnyardgrass; conditions: 1,000 ppm (0.5 mg/0.5 ml)
In short: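 Partially purified ALS from dark-grown pea and barnyardgrass seedlings incubated 1 h at 30° C with pyruvate, TPP, MgCl2 and FAD. Compounds tested at 1,000 ppm (0.5 mg/0.5 ml). Acetoin formed detected colorimetrically at 525 nm via creatine/α-naphthol, relative to blank and acid-stopped controls.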

barnyardgrass [2] = assay: Upland foliar application test (Test 3); assay type: in vivo; conditions: 30 g ai/a, foliar spray at 2-3 leaves, 30th day
In short: (§1)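 Steps: sow in upland soil, greenhouse; grow to 2-3 leaf stage; spray leaves with water-diluted emulsion at 5 l per are using a ULV sprayer; assess effects on day 30.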

common lambsquarters = assay: Upland foliar application test (Test 3); assay type: in vivo; conditions: 30 g ai/a, foliar spray at 2-3 leaves, 30th day
In short: as §1

foxtail meadow = assay: Upland foliar application test (Test 3); assay type: in vivo; conditions: 30 g ai/a, foliar spray at 2-3 leaves, 30th day
In short: as §1

green foxtail = assay: Upland foliar application test (Test 3); assay type: in vivo; conditions: 30 g ai/a, foliar spray at 2-3 leaves, 30th day
In short: as §1

johnsongrass = assay: Upland foliar application test (Test 3); assay type: in vivo; conditions: 30 g ai/a, foliar spray at 2-3 leaves, 30th day
In short: as §1

large crabgrass = assay: Upland foliar application test (Test 3); assay type: in vivo; conditions: 30 g ai/a, foliar spray at 2-3 leaves, 30th day
In short: as §1

redroot pigweed = assay: Upland foliar application test (Test 3); assay type: in vivo; conditions: 30 g ai/a, foliar spray at 2-3 leaves, 30th day
In short: as §1

peanut = assay: Upland foliar application test (Test 3), crop injury; assay type: in vivo; conditions: 30 g ai/a, foliar spray at 2-3 leaves, 30th day
In short: as §1

Sagittaria pygmaea [3] = assay: Treatment of soil under submerged condition, pre-emergence (Test 4); assay type: in vivo; conditions: 30 g ai/a granule, 30 days later
In short: (§2)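 Under submerged conditions, pots carrying weed propagules and transplanted young rice (2–3 leaves) were given a granulated test composition one day after planting, ahead of weed emergence. Plants grew in a greenhouse, with weed emergence and crop injury read 30 days after treatment.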

barnyardgrass [4] = assay: as above; assay type: in vivo; conditions: 30 g ai/a granule, 30 days later
In short: as §2

bulrush [5] = assay: as above; assay type: in vivo; conditions: 30 g ai/a granule, 30 days later
In short: as §2

rice [6] = assay: Treatment of soil under submerged condition, pre-emergence (Test 4), injury; assay type: in vivo; conditions: 30 g ai/a granule, 30 days later
In short: as §2

Sagittaria pygmaea [7] = assay: Treatment of soil under submerged condition, post-emergence (Test 5); assay type: in vivo; conditions: 30 g ai/a granule, 30 days later
In short: (§3)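 Post-emergence paddy test: granules of a predetermined amount of test composition go onto flooded pots when barnyardgrass has two leaves. Transplanted rice seedlings (2–3 leaf stage) share the pots with sown weeds. Damage and crop injury are rated at 30 days.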

barnyardgrass [8] = assay: as above; assay type: in vivo; conditions: 30 g ai/a granule, post-emergence (barnyardgrass two-leaf stage), 30 days later
In short: as §3

bulrush [9] = assay: as above; assay type: in vivo; conditions: 30 g ai/a granule, 30 days later
In short: as §3

rice [10] = assay: Treatment of soil under submerged condition, post-emergence (Test 5), injury; assay type: in vivo; conditions: 30 g ai/a granule, 30 days later
In short: as §3

narrowleaf waterplantain = assay: Petri dish test (Test 6); assay type: in vivo; conditions: 336 h; seeds on filter paper, 25° C., 14 days; read-out: I80 (ppm)
In short: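 Narrowleaf waterplantain seeds placed on filter paper pre-treated with compound in acetone (solvent air-dried) in 9 cm Petri dishes with 10 ml water, grown at 25° C in light. Growth was scored after fourteen days as degree of damage against an untreated group.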

| Structure (SMILES) | Inhibitory activity (%) Barnyardgrass [1] [%] | Herbicidal effects Barnyardgrass (barnyardgrass [2]) | Herbicidal effects Common lambsquarters (common lambsquarters) | Herbicidal effects Foxtail meadow (foxtail meadow) | Herbicidal effects Green foxtail (green foxtail) | Herbicidal effects Johnsongrass (johnsongrass) | Herbicidal effects Large crabgrass (large crabgrass) | Herbicidal effects Redroot pigweed (redroot pigweed) | Injury Peanut (peanut) | Herbicidal effects Sagittaria Pygmaea (Sagittaria pygmaea [3]) | Herbicidal effects Barnyardgrass (barnyardgrass [4]) | Herbicidal effects Bulrush (bulrush [5]) | Injury Rice (rice [6]) | Herbicidal effects Sagittaria Pygmaea (Sagittaria pygmaea [7]) | Herbicidal effects Barnyardgrass (barnyardgrass [8]) | Herbicidal effects Bulrush (bulrush [9]) | Injury Rice (rice [10]) | IC80 (narrowleaf waterplantain) [µg/mL] |
| --- | --- | --- | --- | --- | --- | --- | --- | --- | --- | --- | --- | --- | --- | --- | --- | --- | --- | --- |
| C=C(C)CON=Cc1ccccc1Oc1nc(OC)cc(OC)n1 [compound 5] | 64 | 5 (0-5 (Death)) | 4 (6-10 (Severe damages)) | 5 (0-5 (Death)) | 5 (0-5 (Death)) | 5 (0-5 (Death)) | 5 (0-5 (Death)) | 4 (6-10 (Severe damages)) | 0 (91-100 (No damages)) | 5 (0-5 (Death)) | 4 (6-10 (Severe damages)) | 4 (6-10 (Severe damages)) | 0 (91-100 (No damages)) | 5 (0-5 (Death)) | 5 (0-5 (Death)) | 5 (0-5 (Death)) | 0 (91-100 (No damages)) | 17 (≈ 51.6 µM) |
| COc1cc(OC)nc(Oc2ccccc2C=NOC(C)C)n1 [compound 6] | 17 | 4 (6-10 (Severe damages)) | 4 (6-10 (Severe damages)) | 5 (0-5 (Death)) | 5 (0-5 (Death)) | 5 (0-5 (Death)) | 3 (11-40 (Medium damages)) | 4 (6-10 (Severe damages)) | 0 (91-100 (No damages)) | 4 (6-10 (Severe damages)) | 4 (6-10 (Severe damages)) | 4 (6-10 (Severe damages)) | 0 (91-100 (No damages)) | 3 (11-40 (Medium damages)) | 4 (6-10 (Severe damages)) | 4 (6-10 (Severe damages)) | 0 (91-100 (No damages)) | 40 (≈ 126 µM) |
| CC=CCON=Cc1ccccc1Oc1nc(OC)cc(OC)n1 [compound 8] | 41 | 4 (6-10 (Severe damages)) | 4 (6-10 (Severe damages)) | 5 (0-5 (Death)) | 5 (0-5 (Death)) | 5 (0-5 (Death)) | 3 (11-40 (Medium damages)) | 5 (0-5 (Death)) | 0 (91-100 (No damages)) | 4 (6-10 (Severe damages)) | 4 (6-10 (Severe damages)) | 4 (6-10 (Severe damages)) | 1 (71-90 (Slight damages)) | 5 (0-5 (Death)) | 5 (0-5 (Death)) | 5 (0-5 (Death)) | 1 (71-90 (Slight damages)) | 40 (≈ 121 µM) |
| CC#CCON=Cc1ccccc1Oc1nc(OC)cc(OC)n1 [compound 10] | 55 | 5 (0-5 (Death)) | 4 (6-10 (Severe damages)) | 4 (6-10 (Severe damages)) | 4 (6-10 (Severe damages)) | 5 (0-5 (Death)) | 5 (0-5 (Death)) | 5 (0-5 (Death)) | 0 (91-100 (No damages)) | 4 (6-10 (Severe damages)) | 5 (0-5 (Death)) | 4 (6-10 (Severe damages)) | 1 (71-90 (Slight damages)) | 5 (0-5 (Death)) | 5 (0-5 (Death)) | 5 (0-5 (Death)) | 1 (71-90 (Slight damages)) | 17 (≈ 51.9 µM) |
| COc1cc(OC)nc(Oc2ccccc2C=NOCC=CCl)n1 [compound 11] | 43 | 5 (0-5 (Death)) | 4 (6-10 (Severe damages)) | 5 (0-5 (Death)) | 5 (0-5 (Death)) | 5 (0-5 (Death)) | 5 (0-5 (Death)) | 5 (0-5 (Death)) | 0 (91-100 (No damages)) | 4 (6-10 (Severe damages)) | 4 (6-10 (Severe damages)) | 3 (11-40 (Medium damages)) | 1 (71-90 (Slight damages)) | 4 (6-10 (Severe damages)) | 5 (0-5 (Death)) | 4 (6-10 (Severe damages)) | 0 (91-100 (No damages)) | 40 (≈ 114 µM) |
| COc1cc(OC)nc(Oc2ccccc2C=NOCC=C(C)Cl)n1 [compound 12] | 39 | 4 (6-10 (Severe damages)) | 3 (11-40 (Medium damages)) | 4 (6-10 (Severe damages)) | 4 (6-10 (Severe damages)) | 5 (0-5 (Death)) | 4 (6-10 (Severe damages)) | 3 (11-40 (Medium damages)) | 0 (91-100 (No damages)) | 4 (6-10 (Severe damages)) | 4 (6-10 (Severe damages)) | 4 (6-10 (Severe damages)) | 1 (71-90 (Slight damages)) | 3 (11-40 (Medium damages)) | 5 (0-5 (Death)) | 5 (0-5 (Death)) | 0 (91-100 (No damages)) | 100 (≈ 275 µM) |
